From patent publication US20260356817A1, “AMINOPYRIMIDINE AND AMINOTRIAZINE DERIVATIVES AS MYC PROTEIN MODULATORS” (Sanford Burnham Prebys Medical Discovery Institute, priority 2022, published 2026)
pIC50: −log10 of the molar value. Like-named read-outs stand apart in the source and are kept apart here.

System: Myc
Assay: Myc inhibition assay: Myc expression per cell by anti-Myc immunofluorescence, high-content imaging
Format: cell-based, human (patient-derived medulloblastoma xenograft cells)
Details: medulloblastoma PDX cells, 4 h
Text: To identify Myc inhibitors, cells isolated from patient-derived orthotopic xenografts (PDXs) from patients with Myc-driven medulloblastoma were used. Specifically, PDX cells were propagated by transplantation directly into the cerebellum of immunodeficient (NSG) mice and were never passaged in vitro in order to maintain properties of the tumor from which they were derived. Tumor tissues were isolated from tumor-bearing animals, dissociated into a single-cell suspension, resuspended in serum-free media, and immediately plated in 384 well plates. After overnight recovery, compounds were added to each well, and cells were incubated for 4 hours before being fixed and stained with anti-Myc antibodies and with DAPI to label nuclei. Cells were then analyzed using high-content imaging to determine the levels of Myc expression per cell and IC50 values of the compounds.

[1] = Table 1, read-out: IC50 (Myc inhibition)
[2] = Table 2, read-out: MYC Inhibition IC50

Row | SMILES | pIC50 [1] | pIC50 [2]
1 | COCCNc1cccc(Nc2nccc(-c3ccc4[nH]cnc4c3)n2)c1 [Compound 47, N^1-(4-(1H-benzo[d]imidazol-5-yl)pyrimidin-2-yl)-N^3-(2-methoxyethyl)benzene-1,3-diamine] | 6.00 to 6.70 | 6.00 to 6.70
2 | Fc1ccc(Nc2nccc(-c3ccc4[nH]cnc4c3)n2)cc1 [Compound 81, 4-(1H-benzo[d]imidazol-5-yl)-N-(4-fluorophenyl)pyrimidin-2-amine] | 6.00 to 6.70 | 6.00 to 6.70
3 | C#Cc1cccc(Nc2nccc(-c3ccc4[nH]cnc4c3)n2)c1 [Compound 93, 4-(1H-benzo[d]imidazol-5-yl)-N-(3-ethynylphenyl)pyrimidin-2-amine] | 6.00 to 6.70 | 6.00 to 6.70
4 | Cn1nccc1CNc1nccc(-c2ccc3[nH]cnc3c2)n1 [Compound 82, 4-(1H-benzo[d]imidazol-5-yl)-N-((1-methyl-1H-pyrazol-5-yl)methyl)pyrimidin-2-amine] | 5.00 to 6.00 | 5.00 to 6.00
5 | CC(=O)Nc1cccc(Nc2nccc(-c3ccc4[nH]cnc4c3)n2)c1 [Compound 2, N-(3-((4-(1H-benzo[d]imidazol-5-yl)pyrimidin-2-yl)amino)phenyl)acetamide] | 6.00 to 6.70 | 6.00 to 6.70
6 | Cc1cc(Nc2nccc(-c3ccc4[nH]cnc4c3)n2)ccc1F [Compound 48, 4-(1H-benzo[d]imidazol-5-yl)-N-(4-fluoro-3-methylphenyl)pyrimidin-2-amine] | 6.00 to 6.70 | 6.00 to 6.70
7 | N#Cc1ccc(Nc2nccc(-c3ccc4[nH]cnc4c3)n2)cc1 [Compound 99, 4-((4-(1H-benzo[d]imidazol-5-yl)pyrimidin-2-yl)amino)benzonitrile] | 6.00 to 6.70 | 6.00 to 6.70
8 | O=C(c1cccc(Nc2nccc(-c3ccc4[nH]cnc4c3)n2)c1)N1CCOCC1 [Compound 11, (3-((4-(1H-benzo[d]imidazol-5-yl)pyrimidin-2-yl)amino)phenyl)(morpholino)methanone] | 6.00 to 6.70 | 6.00 to 6.70
9 | c1cc(Nc2nccc(-c3ccc4[nH]cnc4c3)n2)[nH]n1 [Compound 57, 4-(1H-benzo[d]imidazol-5-yl)-N-(1H-pyrazol-5-yl)pyrimidin-2-amine] | 5.00 to 6.00 | 5.00 to 6.00
10 | c1cnc(-n2cc(Nc3nccc(-c4ccc5[nH]cnc5c4)n3)cn2)nc1 [Compound 20, 4-(1H-benzo[d]imidazol-5-yl)-N-(1-(pyrimidin-2-yl)-1H-pyrazol-4-yl)pyrimidin-2-amine] | 6.00 to 6.70 | 6.00 to 6.70
11 | FC(F)(F)c1cccc(Nc2cc(-c3ccc4[nH]cnc4c3)ccn2)c1 [Compound 52, 4-(1H-benzo[d]imidazol-5-yl)-N-(3-(trifluoromethyl)phenyl)pyridin-2-amine] | 5.00 to 6.00 | 5.00 to 6.00
12 | CCS(=O)(=O)c1cccc(Nc2nccc(-c3ccc4[nH]cnc4c3)n2)c1 [Compound 5, 4-(1H-benzo[d]imidazol-5-yl)-N-(3-(ethylsulfonyl)phenyl)pyrimidin-2-amine] | > 6.70 | > 6.70
13 | FC(F)(F)Oc1ccccc1Nc1nccc(-c2ccc3[nH]cnc3c2)n1 [Compound 79, 4-(1H-benzo[d]imidazol-5-yl)-N-(2-(trifluoromethoxy)phenyl)pyrimidin-2-amine] | 6.00 to 6.70 | 6.00 to 6.70
14 | Fc1cncc(Nc2nccc(-c3ccc4[nH]cnc4c3)n2)c1 [Compound 83, 4-(1H-benzo[d]imidazol-5-yl)-N-(5-fluoropyridin-3-yl)pyrimidin-2-amine] | 5.00 to 6.00 | 5.00 to 6.00
15 | c1cc(-c2ccc3[nH]cnc3c2)nc(Nc2ccc3c(c2)CCC3)n1 [Compound 97, 4-(1H-benzo[d]imidazol-5-yl)-N-(2,3-dihydro-1H-inden-5-yl)pyrimidin-2-amine] | 5.00 to 6.00 | 5.00 to 6.00
16 | c1ccc(Nc2nccc(-c3ccc4[nH]cnc4c3)n2)cc1 [Compound 78, 4-(1H-benzo[d]imidazol-5-yl)-N-phenylpyrimidin-2-amine] | 5.00 to 6.00 | 5.00 to 6.00
17 | CC(C)(C)c1ccc(Nc2nccc(-c3ccc4[nH]cnc4c3)n2)cc1 [Compound 72, 4-(1H-benzo[d]imidazol-5-yl)-N-(4-(tert-butyl)phenyl)pyrimidin-2-amine] | 5.00 to 6.00 | 5.00 to 6.00

The next lines start with the values.

Row | pIC50 [1] | pIC50 [2] | SMILES
18 | 5.00 to 6.00 | 5.00 to 6.00 | Oc1ccc(-c2ccnc(Nc3cccc(F)c3)n2)cc1 [Compound 194, 4-(2-((3-fluorophenyl)amino)pyrimidin-4-yl)phenol]
19 | 4.00 to 5.00 | 4.00 to 5.00 | COc1cc(-c2ccnc(Nc3ccncn3)n2)ccn1 [Compound 177, 4-(2-methoxypyridin-4-yl)-N-(pyrimidin-4-yl)pyrimidin-2-amine]
20 | > 6.70 | > 6.70 | c1cc(Nc2nccc(-c3ccc4[nH]cnc4c3)n2)cc(-c2ccn[nH]2)c1 [Compound 261, N-(3-(1H-pyrazol-5-yl)phenyl)-4-(1H-benzo[d]imidazol-5-yl)pyrimidin-2-amine]
21 | 5.00 to 6.00 | 5.00 to 6.00 | Fc1cccc(Nc2nccc(-c3ccc4[nH]nnc4c3)n2)c1 [Compound 138, 4-(1H-benzo[d][1,2,3]triazol-5-yl)-N-(3-fluorophenyl)pyrimidin-2-amine]
22 | 4.00 to 5.00 | 4.00 to 5.00 | COc1cc(-c2ccnc(Nc3cncc(C(F)(F)F)c3)n2)ccn1 [Compound 155, 4-(2-methoxypyridin-4-yl)-N-(5-(trifluoromethyl)pyridin-3-yl)pyrimidin-2-amine]
23 | 4.00 to 5.00 | 4.00 to 5.00 | COc1ccc(-c2ccnc(Nc3cccc(F)c3)n2)nc1 [Compound 174, N-(3-fluorophenyl)-4-(5-methoxypyridin-2-yl)pyrimidin-2-amine]
24 | 5.00 to 6.00 | 5.00 to 6.00 | COc1ccc(Nc2ccnc(Nc3cccc(F)c3)n2)cn1 [Compound 108, N^2-(3-fluorophenyl)-N^4-(6-methoxypyridin-3-yl)pyrimidine-2,4-diamine]
25 | > 6.70 | > 6.70 | Fc1cc(-c2ccnc(Nc3cccc(C(F)(F)F)c3)n2)cc2nc[nH]c12 [Compound 115, 4-(7-fluoro-1H-benzo[d]imidazol-5-yl)-N-(3-(trifluoromethyl)phenyl)pyrimidin-2-amine]
26 | > 6.70 | > 6.70 | FC(F)(F)c1cncc(Nc2nccc(-c3cnc4nc[nH]c4c3)n2)c1 [Compound 106, 4-(1H-imidazo[4,5-b]pyridin-6-yl)-N-(5-(trifluoromethyl)pyridin-3-yl)pyrimidin-2-amine]
27 | 6.00 to 6.70 | 6.00 to 6.70 | COc1cc(-c2ccnc(Sc3ccccc3)n2)ccn1 [Compound 234, 4-(2-methoxypyridin-4-yl)-2-(phenylthio)pyrimidine]
28 | 4.00 to 5.00 | 4.00 to 5.00 | COc1cccc(-c2ccnc(Nc3ccccc3OC)n2)c1 [Compound 248, N-(2-methoxyphenyl)-4-(3-methoxyphenyl)pyrimidin-2-amine]
29 | 4.00 to 5.00 | 4.00 to 5.00 | Oc1cccc(-c2ccnc(Nc3cccc(C(F)(F)F)c3)n2)c1 [Compound 173, 3-(2-((3-(trifluoromethyl)phenyl)amino)pyrimidin-4-yl)phenol]
30 | 4.00 to 5.00 | 4.00 to 5.00 | COc1cccc(-c2ccnc(Nc3ccccc3)n2)n1 [Compound 236, 4-(6-methoxypyridin-2-yl)-N-phenylpyrimidin-2-amine]
31 | 5.00 to 6.00 | 5.00 to 6.00 | Oc1cncc(-c2ccnc(Nc3ccccc3)n2)c1 [Compound 219, 5-(2-(phenylamino)pyrimidin-4-yl)pyridin-3-ol]
32 | 5.00 to 6.00 | 5.00 to 6.00 | Oc1cccc(-c2ccnc(Nc3ccccc3)n2)c1 [Compound 244, 3-(2-(phenylamino)pyrimidin-4-yl)phenol]
33 | 5.00 to 6.00 | 5.00 to 6.00 | FC(F)(F)c1cccc(Nc2nccc(NCCc3cnc[nH]3)n2)c1 [Compound 111, N^4-(2-(1H-Imidazol-4-yl)ethyl)-N^2-(3-(trifluoromethyl)phenyl)pyrimidine-2,4-diamine]
34 | 5.00 to 6.00 | 5.00 to 6.00 | COc1cccc(-c2ccnc(Nc3cccc(Cl)c3)n2)c1 [Compound 249, N-(3-chlorophenyl)-4-(3-methoxyphenyl)pyrimidin-2-amine]
35 | > 6.70 | > 6.70 | Clc1cccc(Nc2nccc(-c3cnc4nc[nH]c4c3)n2)c1 [Compound 141, N-(3-chlorophenyl)-4-(1H-imidazo[4,5-b]pyridin-6-yl)pyrimidin-2-amine]
36 | 5.00 to 6.00 | 5.00 to 6.00 | Fc1cccc(Nc2nccc(-c3ccc4[nH]ccc4c3)n2)c1 [Compound 153, N-(3-fluorophenyl)-4-(1H-indol-5-yl)pyrimidin-2-amine]
37 | 5.00 to 6.00 | 5.00 to 6.00 | Oc1ccnc(-c2ccnc(Nc3cccc(F)c3)n2)c1 [Compound 182, 2-(2-((3-fluorophenyl)amino)pyrimidin-4-yl)pyridin-4-ol]
38 | 4.00 to 5.00 | 4.00 to 5.00 | COc1cncc(-c2ccnc(N(C)c3ccccc3)n2)c1 [Compound 224, 4-(5-methoxypyridin-3-yl)-N-methyl-N-phenylpyrimidin-2-amine]
39 | > 6.70 | > 6.70 | FC(F)c1cccc(Nc2nccc(-c3ccc4nc[nH]c4c3)n2)c1 [Compound 280, 4-(1H-benzo[d]imidazol-5-yl)-N-(3-(difluoromethyl)phenyl)pyrimidin-2-amine]
40 | 5.00 to 6.00 | 5.00 to 6.00 | COc1ccc(-c2ccnc(Nc3cccc(C(F)(F)F)c3)n2)cn1 [Compound 212, 4-(6-methoxypyridin-3-yl)-N-(3-(trifluoromethyl)phenyl)pyrimidin-2-amine]
41 | 5.00 to 6.00 | 5.00 to 6.00 | Cc1cnc(Nc2cccc(C(F)(F)F)c2)nc1-c1cnc2nc[nH]c2c1 [Compound 113, 4-(1H-imidazo[4,5-b]pyridin-6-yl)-5-methyl-N-(3-(trifluoromethyl)phenyl)pyrimidin-2-amine]
